# Experimental data published in patent US10745448B2, “Antiviral peptide and use therefor” (priority 2017, dated 2020).
# Several values for one entry are separate records, joined by “and”; a condition that tells them apart may be missing. Identical values can stand only once. No end group written: not given here.
# Test system: vesicular stomatitis Indiana virus (Indiana VSV)
# Assay type: cell-based
row,Substance,Virus infectivity (virus titer)
1,MKAIIVLLMVVTSNAKKRTLRKNDRKKR-CONH2 (MKAIIVLLMVVTSNAKKRTLRKNDRKKR-NH2) [Sample 3],9.23 log10 PFU/mL and 6.34 log10 PFU/mL
2,MKTIIALSYIFCLALGKKRTLRKNDRKKR-CONH2 (MKTIIALSYIFCLALGKKRTLRKNDRKKR-NH2) [Sample 2],9.07 log10 PFU/mL and 5.95 log10 PFU/mL
3,MLSYLIFALAVSPILGKKRTLRKNDRKKR-CONH2 (MLSYLIFALAVSPILGKKRTLRKNDRKKR-NH2) [Sample 1],9.11 log10 PFU/mL and 5.90 log10 PFU/mL
